Measured values as given in US7928138B2, “Marine actinomycete taxon for drug and fermentation product discovery” (Regents of the University of California, priority 2000, dated 2011).
Values after ≈ are worked out from the molar mass of the structure shown.

System: HCT-116 human colon carcinoma cell line
Assay: Cytotoxicity against human colon carcinoma cell line by MTS assay
Type: cell-based
Settings: pure compound
Protocol: Assay for the inhibition of growth of colon carcinoma cells and of ovarian cancer cells in vitro. The cytotoxicity of extracts from cells or culture media were assessed in vitro against the human colon carcinoma cell line HCT116 and the human ovarian carcinoma cell line A2780 by MTS assay. Cells were plated at 4,000 cells per well in 96 well microliter plates and, after 24 hours, the extract (dissolved in DMSO or other appropriate solvent) was added and serially diluted. The cells were incubated with the compound at 37° C. for 72 hours, then the tetrazolium dye MTS was added to a final concentration of 333 μg/ml and the electron coupling agent phenazine methosulfate was added to a final concentration of 25 μM. Once reduced, MTS is converted into a […] blue crystal formazan and that was read at an absorbance at 490 nm with a microplate reader. As dead cells are unable to reduce MTS, the amount of formazan is correlated to the number of viable cells. The IC50, the drug concentration required to inhibit proliferation of 50% of the cells, was used as a measure of efficacy.

C[C@@]12OC(=O)[C@]1([C@@H](O)[C@@H]1C=CCCC1)NC(=O)[C@@H]2CCCl [salinosporamide A]
IC50 against the HCT-116 human colon carcinoma cell line: 0.01 µg/mL (≈ 0.0319 µM)
